Here are results for 8 molecules from PubChem BioAssay (NCI).

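1) Cells in 96-well plates. 2) Compound, 48 h, 5 concentrations. 3) Linear interpolation between surrounding doses. 4) Unreached endpoint = highest concentration. TGI denotes the concentration required for complete inhibition of growth.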

Some test systems named below: UO-31 renal; SN12C renal; CAKI-1 renal; RXF 393 renal; OVCAR-5 ovarian; SK-MEL-5 melanoma; BT-549 breast; SK-MEL-2 melanoma; SF-268 CNS; SK-MEL-28 melanoma; OVCAR-3 ovarian; HCT-15 colon; HCC-2998 colon; SNB-75 CNS; DU-145 prostate; A498 renal; MDA-N; 786-0 renal; UACC-257 melanoma; RPMI-8226 leukemia.
Assay in all cases: NCI tumour cell line growth inhibition, 48 h

Take `c1ccc2c(CSCc3cccc4ccccc34)cccc2c1`: the TGI in the assay with UO-31 renal, with SN12C renal, in the assay with CAKI-1 renal, with RXF 393 renal, with OVCAR-5 ovarian and with SK-MEL-5 melanoma was above 100 µM each time. Moreover, the TGI in the assay with BT-549 breast, in the assay with SK-MEL-2 melanoma, in the assay with SF-268 CNS, in the assay on SK-MEL-28 melanoma, in the assay on OVCAR-3 ovarian and in the assay on HCT-15 colon was above 100 µM throughout. Besides, the TGI with HCC-2998 colon, in the assay with SNB-75 CNS, in the assay with DU-145 prostate, in the assay on A498 renal, in the assay with MDA-N and in the assay with 786-0 renal was above 100 µM each time. The molecule further displayed a TGI in the assay on UACC-257 melanoma above 100 µM.

Consider `CC(C)(C)[Si](OC1CCOC1=O)(c1ccccc1)c1ccccc1` (stereo not drawn), for which the TGI with UO-31 renal is above 100 µM; with SN12C renal, 33.5 µM; in the assay with OVCAR-5 ovarian it was above 100 µM; in the assay on SK-MEL-5 melanoma, 26.1 µM; in the assay on RPMI-8226 leukemia, above 100 µM; with SK-MEL-2 melanoma, 32.5 µM. For the same molecule, the TGI is above 100 µM with SF-268 CNS; 62.6 µM with SK-MEL-28 melanoma; 27.1 µM in the assay with OVCAR-3 ovarian; 61.5 µM with HCT-15 colon; 47 µM in the assay on HCC-2998 colon; above 100 µM with SNB-75 CNS. The TGI in the assay on A498 renal was 63.8 µM; in the assay on UACC-257 melanoma, 50.4 µM.

`COc1cc(C(=O)NC2CCc3cc(OC)c(OC)c(OC)c3-c3ccc(OC)c(=O)cc32)cc(OC)c1OC` (stereo not drawn): the TGI in the assay with UO-31 renal is above 98 µM; with SN12C renal it was above 100 µM; in the assay with CAKI-1 renal, 34 µM; in the assay with RXF 393 renal, 24 µM; in the assay on OVCAR-5 ovarian, above 100 µM; with SK-MEL-5 melanoma, 0.377 µM. The TGI in the assay on RPMI-8226 leukemia was 27.4 µM; with SK-MEL-2 melanoma, above 24.1 µM; with SF-268 CNS it was 42.4 µM; with SK-MEL-28 melanoma it was above 100 µM; with OVCAR-3 ovarian, 0.261 µM; with HCT-15 colon, above 100 µM. The TGI was 1.16 µM in the assay with HCC-2998 colon; 18.3 µM in the assay on SNB-75 CNS; 8.44 µM with A498 renal; 0.0961 µM in the assay with MDA-N; 70.9 µM with 786-0 renal; 59.3 µM in the assay with UACC-257 melanoma.

With `C[n+]1cccc(NC(=O)c2ccc(NC(=O)C34CCC(C(=O)Nc5ccc(C(=O)Nc6ccc[n+](C)c6)cc5)(CC3)CC4)cc2)c1`, the TGI in the assay with SN12C renal is 75.1 µM; in the assay with RXF 393 renal, 61.5 µM; in the assay on OVCAR-5 ovarian, above 100 µM; in the assay with SK-MEL-5 melanoma it was above 100 µM; in the assay on RPMI-8226 leukemia, above 100 µM; in the assay on SF-268 CNS, above 100 µM. The TGI with SK-MEL-28 melanoma is above 100 µM; in the assay with HCT-15 colon it was above 100 µM; in the assay on SNB-75 CNS, 78.7 µM; with A498 renal, above 100 µM; with 786-0 renal, above 100 µM; with UACC-257 melanoma, above 100 µM.

Consider `CCOc1cc(C2CC(c3ccc(NS(=O)(=O)c4cc([N+](=O)[O-])ccc4C)cc3)=NN2S(=O)(=O)c2cc([N+](=O)[O-])ccc2C)ccc1O` (stereo not drawn), for which the TGI is above 100 µM in the assay with UO-31 renal; 81.3 µM with SN12C renal; above 100 µM in the assay on CAKI-1 renal; 70.7 µM in the assay with RXF 393 renal; above 100 µM with OVCAR-5 ovarian; 64.8 µM in the assay with SK-MEL-5 melanoma. Also, the TGI was above 100 µM in the assay on RPMI-8226 leukemia; above 100 µM with BT-549 breast; 62 µM in the assay on SK-MEL-2 melanoma; above 100 µM with SF-268 CNS; above 100 µM with SK-MEL-28 melanoma; 71.5 µM in the assay with OVCAR-3 ovarian. Moreover, the TGI in the assay on HCT-15 colon is above 100 µM; in the assay with DU-145 prostate, above 100 µM; in the assay with A498 renal it was 22 µM; in the assay with MDA-N, above 100 µM; in the assay with 786-0 renal it was 98.7 µM; in the assay on UACC-257 melanoma, above 100 µM.

On to `O=C(CSCC(=O)N/N=C/c1ccc2c(c1)OCO2)N/N=C/c1ccc2c(c1)OCO2`, for which the TGI in the assay with UO-31 renal, with SN12C renal, in the assay with CAKI-1 renal, in the assay with RXF 393 renal, with OVCAR-5 ovarian and in the assay with SK-MEL-5 melanoma was above 100 µM each time. Besides, the TGI in the assay on RPMI-8226 leukemia, in the assay on BT-549 breast, with SK-MEL-2 melanoma, in the assay on SF-268 CNS, in the assay on SK-MEL-28 melanoma and in the assay on OVCAR-3 ovarian was above 100 µM in each case. Further, the TGI with HCT-15 colon, with HCC-2998 colon, in the assay with SNB-75 CNS, with DU-145 prostate, in the assay with A498 renal and in the assay with 786-0 renal was above 100 µM each time. This molecule yielded a TGI in the assay on UACC-257 melanoma above 100 µM.

Take `CC1=NN(c2cccc(Cl)c2)C2(SCC(=O)N2c2nc3ccccc3s2)C1=CC=Cc1ccccc1` (stereo not drawn): the TGI with UO-31 renal was above 100 µM; with CAKI-1 renal, above 100 µM; in the assay with RXF 393 renal, 64.1 µM; in the assay with OVCAR-5 ovarian, above 100 µM; in the assay on SK-MEL-5 melanoma, 47 µM; with RPMI-8226 leukemia, above 100 µM. Further, the TGI was 59.8 µM with SK-MEL-2 melanoma; 93.5 µM in the assay with SF-268 CNS; above 100 µM with SK-MEL-28 melanoma; above 100 µM in the assay with OVCAR-3 ovarian; above 100 µM in the assay on HCT-15 colon; above 100 µM in the assay on HCC-2998 colon. Moreover, the TGI in the assay on DU-145 prostate is 68.6 µM; in the assay with A498 renal it was 61.9 µM; in the assay on MDA-N, above 100 µM; with 786-0 renal, above 100 µM; in the assay on UACC-257 melanoma it was above 100 µM.

In the case of `CC(=O)Oc1ccccc1`, the TGI in the assay on UO-31 renal, in the assay on SN12C renal, in the assay with CAKI-1 renal, in the assay on RXF 393 renal, in the assay on OVCAR-5 ovarian and in the assay on SK-MEL-5 melanoma was above 100 µM throughout. Besides, the TGI with RPMI-8226 leukemia, in the assay with SK-MEL-2 melanoma, in the assay with SF-268 CNS, in the assay with SK-MEL-28 melanoma, with OVCAR-3 ovarian and in the assay with HCT-15 colon was above 100 µM throughout. In addition, the TGI in the assay on SNB-75 CNS, in the assay on A498 renal, with 786-0 renal and with UACC-257 melanoma was above 100 µM throughout.
